Laboratory results from patent US5344959A, “Tetrahydronaphthyl and cyclopropyl substituted 1,3-butadienes having retinoid-like activity” (Allergan, Inc., priority 1993, dated 1994).

How the values were obtained:
[1] = test system: ornithine decarboxylase (ODC); assay: inhibition of TPA induction of ornithine decarboxylase (ODC); type: in vivo; details: inhibition of TPA-induced ODC activity; Table 1
Source text: The retinoid-like activity of these compounds is confirmed through the classic measure of retinoic acid activity involving the effects of retinoic acid on ornithine decarboxylase. The original work on the correlation-between retinoic acid and decrease in cell proliferation was done by Verma & Boutwell, Cancer Research, 1977, 37,2196-2201. That reference discloses that ornithine decarboxylase (ODC) activity increased precedent to polyamine biosynthesis. It has been established elsewhere that increases in polyamine synthesis can be correlated or associated with cellular proliferation. Thus, if ODC activity could be inhibited, cell hyperproliferation could be modulated. Although all causes for ODC activity increases are unknown, it is known that 12-0-tetradecanoylphorbol-13-acetate (TPA) induces ODC activity. Retinoic acid inhibits this induction of ODC activity by TPA.

[2] = test system: ornithine decarboxylase (ODC); details: general statement, cited from earlier work

| SMILES | IC80 [1] | other results |
| --- | --- | --- |
| CCOC(=O)[C@@H]1C[C@H]1/C=C/C=C(\C)c1cc2c(cc1C)C(C)(C)CCC2(C)C (relative stereo) [Compound 7, Ethyl trans-2-[4-methyl-4-(3,5,5,8,8,-pentamethyl-5,6,7,8-tetrahydro-2-naphthyl)-(E),(E) 1-3-butadienyl]-1-cyclopropane carboxylate] | 250 nM |  |
| CCCCCCCCCCCCCC(=O)O[C@@H]1[C@@H](C)[C@@]2(O)[C@@H](C=C(CO)C[C@]3(O)C(=O)C(C)=C[C@@H]23)[C@@H]2C(C)(C)[C@]12OC(C)=O [12-0-tetradecanoylphorbol-13-acetate] |  | induction of ODC activity ([2]; known): induces |
| C/C(=C\C=C\[C@H]1C[C@H]1C(=O)O)c1cc2c(cc1C)C(C)(C)CCC2(C)C (relative stereo) [Compound 6, Cis-2-[4-methyl-4-(3,5,5,8,8,-pentamethyl-5,6,7,8-tetrahydro-2-naphthyl)-(E),(E) 1-3-butadienyl]-1-cyclopropane carboxylic acid] | 638 nM |  |
| C/C(=C\C=C\[C@@H]1C[C@H]1C(=O)O)c1ccc2c(c1)C(C)(C)CCC2(C)C (relative stereo) [Compound 3, Trans-2-[4-methyl-4-(5,5,8,8,-tetramethyl-5,6,7,8-tetrahydro-2-naphthyl)-(E),(E) 1-3-butadienyl]-1-cyclopropane carboxylic acid] | 2.6 nM |  |
| C/C(=C\C=C\[C@H]1C[C@H]1C(=O)O)c1ccc2c(c1)C(C)(C)CCC2(C)C (relative stereo) [Compound 4, Cis-2-[4-methyl-4-(5,5,8,8,-tetramethyl-5,6,7,8-tetrahydro-2-naphthyl)-(E),(E) 1-3-butadienyl]-1-cyclopropane carboxylic acid] | 35 nM |  |
| CC1=C(/C=C/C(C)=C/C=C/C(C)=C/C(=O)O)C(C)(C)CCC1 [Retinoic acid] |  | inhibition of induction of ODC activity by TPA ([2]; literature): inhibits |
| CCOC(=O)[C@@H]1C[C@H]1/C=C/C=C(\C)c1ccc2c(c1)C(C)(C)CCC2(C)C (relative stereo) [Compound 2, Ethyl trans 2-[4-methyl-4(5,6,7,8-tetrahyro-5,5,8,8-tetramethyl-2-naphthyl)E,E 1-3 butadienyl] 1-cyclopropane carboxylate] | 2.1 nM |  |
| CCOC(=O)[C@@H]1C[C@@H]1/C=C/C=C(\C)c1cc2c(cc1C)C(C)(C)CCC2(C)C (relative stereo) [Compound 5, Ethyl cis-2-[4-methyl-4-(3,5,5,8,8,-pentamethyl-5,6,7,8-tetrahydro-2-naphthyl)-(E),(E) 1-3-butadienyl]-1-cyclopropane carboxylate] | > 300 nM |  |
| CCOC(=O)[C@@H]1C[C@@H]1/C=C/C=C(\C)c1ccc2c(c1)C(C)(C)CCC2(C)C (relative stereo) [Compound 1, Ethyl cis-2-[4-methyl-4-(5,5,8,8,-tetramethyl-5,6,7,8-tetrahydro-2-naphthyl)-(E),(E) 1-3-butadienyl]-1-cyclopropane carboxylate] | 8.3 nM |  |
